Results: PubChem BioAssay AID720587 (Broad Institute, 2013)
Where “and” joins values, the source holds several entries; their conditions need not be identical. Equal entries are not always repeated. Calls of active or inactive are those of the source.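 The calls were made as follows: active = fitted curve reaches -35% activity change at a concentration below twice the top valid dose tested; inactive = the rest, including effects opposite to the expected direction.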

system: not listed separately; assay: A673 Ewing sarcoma viability loss – cell-based, CellTiter-Glo luminescence, cherry-pick retest, confirmation (AID 720587); conditions: A673 Ewing sarcoma viability, CellTiter-Glo ATP luminescence, 72 h; at 26 µM (top of the series)

With CN(C)c1ccc(N=Nc2ccccc2Br)cc1 the activity change, negative = cytotoxicity was -10.3% (inactive).
For CCCCN=C(NNc1ccc(Br)cc1)C(=O)OCC, the activity change, negative = cytotoxicity was -5.32% (inactive).
In the case of Cc1c(-c2nc(-c3ccc(C(C)(C)C)cc3)no2)n(C)oc1=O, the activity change, negative = cytotoxicity is reported as 2.17% (inactive).
With O=C(/C=C/c1ccc(Cl)cc1Cl)N(Cc1ccc(Cl)cc1)C1CCS(=O)(=O)C1 (stereo unspecified) the activity change, negative = cytotoxicity was 2.8% (inactive).
For CCOC(=O)Cc1ccc(NC(=O)c2ccccc2Br)cc1, the activity change, negative = cytotoxicity was -0.788% (inactive).

system: A673 Ewing sarcoma viability, CellTiter-Glo ATP luminescence, 72 h; assay: as above; conditions: not given

Point of comparison: O=c1[nH]c(=O)n([C@H]2C[C@H](O)[C@@H](CO)O2)cc1F, AC35 0.0545 µM. Against it:
- COc1ccc([Si](C)(C)[C@H]2[C@H](CCO)O[C@@]3(C(=O)N(c4ccccc4)c4ccccc43)[C@@H]2C)cc1 — 140-fold higher, 7.61 µM
- C(=N\Nc1nc2ccccc2[nH]1)/c1ccccn1 — 32-fold higher, 1.74 µM
- Cn1ccc2cc(-c3ccc4ncnc(NCc5cccs5)c4c3)ccc21 — 84-fold higher, 4.58 µM
- C[C@H]1CN([C@@H](C)CO)S(=O)(=O)c2ccc(C#Cc3ccncc3)cc2O[C@@H]1CN(C)C(=O)Nc1ccc2c(c1)OCO2 — 12-fold higher, 0.64 µM
- CC(=NNc1ccc2ccccc2n1)c1ccccn1 — 4.3-fold higher, 0.234 µM
- CC[C@@H]1C[C@H]2CC[C@H](O2)[C@H](C)C(=O)O[C@@H](C)C[C@@H]2CC[C@@H](O2)[C@@H](C)C(=O)O[C@H](C)C[C@H]2CC[C@H](O2)[C@H](C)C(=O)O[C@@H](C)C[C@@H]2CC[C@@H](O2)[C@@H](C)C(=O)O1 — 4.5-fold higher, 0.243 µM
- COc1cccc(CN2CCC2(C)C(=O)Nc2cccc3cccnc23)c1F (stereo unspecified) — 260-fold higher, 14.3 µM
- OCC1OC(n2cnc3c(NCc4ccco4)ncnc32)C(O)C1O (stereo unspecified) — 74-fold higher, 4.04 µM
- CCCCCCCCNC(C)C(O)c1ccc(SC(C)C)cc1 (stereo unspecified) — 110-fold higher, 5.92 µM
- O=C(N/N=C/c1ccc[nH]1)c1cc(-c2ccc(Cl)cc2)nc2ccccc12 — 210-fold higher, 11.6 µM
- COc1ccc(CC(N)c2csc(NC(=O)Nc3cccc(C(F)(F)F)c3)n2)cc1 (stereo unspecified) — 120-fold higher, 6.74 µM
- CCc1ccc(S(=O)(=O)c2ccc(-n3nc(C)cc3N)cc2)cc1 — 330-fold higher, 17.8 µM
- CC1=NN(c2ccc(C)cc2)C(=O)/C1=C\C=C\c1ccccc1 — 150-fold higher, 7.95 µM
- O=C1NC(=S)NC(=O)C1=Cc1cccn1-c1ccc(O)cc1 — 320-fold higher, 17.7 µM
- CC(C)c1ccc(OCc2cccc(C(=O)N/N=C/c3cccnc3)c2)cc1 — 360-fold higher, 19.4 µM
- COC(=O)c1ccccc1-c1c2ccc(=N)cc-2oc2cc(N)ccc12 — 67-fold higher, 3.64 µM
- COc1cc(/C=C/C(=O)CC(=O)/C=C/c2ccc(O)c(OC)c2)ccc1O — 47-fold higher, 2.54 µM
- COC(=O)C[C@@H]1CC[C@@H]2[C@@H](COc3ccc(NC(=O)Nc4ccccc4C)cc3C(=O)N2C)O1 — 360-fold higher, 19.7 µM
- CC1(C)Oc2cc3oc(-c4cc(O)cc(O)c4)cc3cc2CC1O (stereo unspecified) — 400-fold higher, 21.7 µM
- Nc1nc(=S)c2ncn([C@@H]3O[C@H](CO)[C@@H](O)[C@H]3O)c2[nH]1 — 28-fold higher, 1.53 µM
- COCCOC(=O)N1C(=O)[C@@]2(c3cc(C#CCC(C(=O)OC)C(=O)OC)ccc31)[C@H](c1ccccc1OCCO)N1[C@H](c3ccccc3)[C@H](c3ccccc3)OC(=O)[C@H]1[C@@H]2C(=O)N1CCN(c2ncccn2)CC1 — 92-fold higher, 5.04 µM
- COC(=O)C[C@@H]1CC[C@@H]2[C@H](COc3ccc(NC(=O)c4ccc(F)c(F)c4)cc3C(=O)N2C)O1 — 360-fold higher, 19.7 µM
- N#CC1=C(N)Oc2cc(N)ccc2C1c1cccc(Br)c1 (stereo unspecified) — 9.3-fold higher, 0.505 µM
- COc1ccc(S(=O)(=O)Nc2cccc3c2O[C@H](CN(C)Cc2ccc(C(=O)Nc4ccccc4N)cc2)[C@H](C)CN([C@@H](C)CO)C3=O)cc1 — 100-fold higher, 5.46 µM
- C[C@@H]1CN([C@@H](C)CO)C(=O)c2cc(NS(=O)(=O)c3ccccc3)ccc2O[C@@H]1CN(C)Cc1ccc(C(=O)Nc2ccccc2N)cc1 — 150-fold higher, 8.39 µM
- Cc1cccc(N2CCN(C3C(=O)Nc4ccccc4-n4nnnc43)CC2)c1C (stereo unspecified) — 240-fold higher, 13.1 µM
- COc1ccc(/C=C/C(=O)c2cc(F)ccc2OC(=O)c2ccccc2OC)cc1OC — 83-fold higher, 4.54 µM
- Cc1cccc(NC(=O)CN2CCN(C(=O)CNC(=O)c3ccc(-c4ccccc4)cc3)CC2)c1C — 230-fold higher, 12.8 µM
- COc1ccc(OC)c(-c2nnc3n2N=C(c2ccc(OC)c(OC4CCOC4)c2)CS3)c1 (stereo unspecified) — 59-fold higher, 3.24 µM
- O=C1NC(=O)N(Cc2ccccc2)C(=O)/C1=C\C=C\c1ccco1 — 93-fold higher, 5.05 µM
- Cc1c(CCOC(=O)CC23CC4CC(CC(C)(C4)C2)C3)sc[n+]1CC(=O)c1ccccc1 — 360-fold higher, 19.5 µM
- COC(=O)C[C@H]1CC[C@@H](NC(=O)Nc2ccc(C(F)(F)F)cc2)[C@H](CO)O1 — 350-fold higher, 18.9 µM
- C(=NNc1ccc2ccccc2n1)c1ccccn1 — 9.4-fold higher, 0.514 µM
- CCOc1cc(N2CCC(O)CC2)ccc1Nc1ncc2c(n1)N(C)c1ccccc1C(=O)N2C — 390-fold higher, 21 µM
- CC(=NNc1cc(C)c2ccccc2n1)c1ccccn1 — 7.7-fold higher, 0.417 µM
- O=c1[nH]c(/C=C2\C=Nc3ccccc32)c(O)n1Cc1ccccc1F — 58-fold higher, 3.16 µM
- COc1ccc(C2=Nn3c([n+](C)c4ccccc43)SC2)cc1 — 370-fold higher, 20.2 µM
- COc1ccc(C=C2CCc3ccccc3C2=O)cc1 — 350-fold higher, 18.9 µM
- OCC1OC(n2ccc3c2ncn2ncnc32)C(O)C1O (stereo unspecified) — 13-fold higher, 0.693 µM
- O=C1NC(=O)N(Cc2ccc(F)cc2)C(=O)/C1=C\C=C\c1ccco1 — 97-fold higher, 5.3 µM
- Nc1nc(N)c2cc(Sc3ccc4ccccc4c3)ccc2n1 — 61-fold higher, 3.35 µM
- Cc1cc(C)c2sc(NNC(=O)c3ccc(S(=O)(=O)N4CCc5ccccc5C4)cc3)nc2c1 — 22-fold higher, 1.19 µM
- Cc1ccc(S(=O)(=O)Nc2ccc3c(c2)C(=O)N([C@@H](C)CO)C[C@@H](C)[C@H](CN(C)Cc2ccc(C(F)(F)F)cc2)OCCCC[C@H](C)O3)cc1 — 220-fold higher, 12.1 µM
- CN(C[C@H]1N[C@@H](CO)[C@@H]1c1ccc(C2=CCCC2)cc1)C(=O)c1ccc(F)cc1 — 77-fold higher, 4.19 µM
- O=C1NC2C(=CC(O)C(O)C2O)c2cc3c(cc21)OCO3 (stereo unspecified) — 15-fold higher, 0.837 µM
- COc1ccc(C(C)(O)c2nc(-c3cccc(F)c3)cs2)cc1 (stereo unspecified) — 170-fold higher, 9.33 µM
- CC(C)Oc1ccc(Br)cc1C(=O)N/N=C/c1c[nH]c2ccccc12 — 410-fold higher, 22.6 µM
- COC(=O)C[C@@H]1CC[C@@H]2[C@H](COc3ccc(NC(=O)c4ccc(F)cc4)cc3C(=O)N2C)O1 — 420-fold higher, 23 µM
- Cc1ccc(OCCNC(=O)c2cccc(S(=O)(=O)NCc3ccccc3)c2)cc1 — 85-fold higher, 4.65 µM
- COC(=O)C(CC#Cc1ccc2c(c1)[C@]1(C(=O)N2)[C@H](c2ccc(OCCO)cc2)N2[C@H](c3ccccc3)[C@H](c3ccccc3)OC(=O)[C@H]2[C@@H]1C(=O)N1CCN(c2ncccn2)CC1)C(=O)OC — 140-fold higher, 7.81 µM
- C[C@H](CO)N1C[C@H](C)[C@H](CN(C)Cc2ccc(C(=O)Nc3ccccc3N)cc2)Oc2c(cccc2N(C)C)C1=O — 320-fold higher, 17.6 µM
- CN1c2ccc(-c3ccc(C#N)cc3)cc2[C@H]2[C@H](CCN2S(=O)(=O)c2cccc(F)c2)[C@H]1CO — 63-fold higher, 3.45 µM
- CC(C)(C)C(=O)Cn1ncc(Cl)c(Cl)c1=O — 50-fold higher, 2.73 µM
- COc1ccc(/C=C2\SC(=S)N(CCCC(=O)NNC(=O)c3ccccc3O)C2=O)cc1 — 310-fold higher, 16.8 µM
- COC1C(O)C(C)OC(OC2CCC3(C)C(CCC4C3C(O)CC3(C)C(C5=CC(=O)OC5)CCC43O)C2)C1O (stereo unspecified) — 4.2-fold higher, 0.228 µM
- COc1ccc(S(=O)(=O)N2CC[C@@H]3[C@@H](CO)Nc4ccc(-c5ccc(C#N)cc5)cc4[C@@H]32)cc1 — 160-fold higher, 8.87 µM
- C#CCOCCOCCOCCNc1nc(N2CCN(C(=O)CCCCCCCCCCNC(=O)Cn3cc(C[C@@H](C)O)nn3)CC2)nc(N2CCN(C(=O)CCCCCCCCCCNC(=O)[C@H](CO)n3cc(CCCSC)nn3)CC2)n1 — 240-fold higher, 13.3 µM
- C[C@H]1CN([C@@H](C)CO)C(=O)Cc2cc(NC(=O)CCCCCC(=O)Nc3ccccc3N)ccc2O[C@H]1CN(C)Cc1ccc(Oc2ccccc2)cc1 — 110-fold higher, 6.08 µM
- COc1ccc(CN(C)c2ncnc3sccc23)c(OC)c1OC — 280-fold higher, 15.3 µM
- CCOc1cc(/C=N/Nc2cc(C)nc(-n3nc(C)cc3C)n2)ccc1O — 32-fold higher, 1.77 µM
- CN1C2CCC1/C(=C/c1ccccn1)C(=O)/C2=C\c1ccccn1 — 6.6-fold higher, 0.362 µM
- Cc1nn(Cc2ccccc2Cl)c2sc(C(=O)Nc3ccccc3N3CCOCC3)cc12 — 250-fold higher, 13.5 µM
- Nc1sc(-c2ccccc2)cc1-c1n[nH]c(=S)n1C1CCCCC1 — 130-fold higher, 6.83 µM
- CC1(C(=O)NCc2ccco2)Cc2c(-c3cccc(C(N)=O)c3)ccnc2O1 (stereo unspecified) — 94-fold higher, 5.1 µM
- C[C@H](CO)N1C[C@H](C)[C@H](CN(C)Cc2ccc(C(=O)Nc3ccccc3N)cc2)Oc2ccc(NC(=O)C3CC3)cc2CC1=O — 140-fold higher, 7.86 µM
- COc1ccc(OC)c(Cc2cnc3nc(N)nc(N)c3c2C)c1 — 3.6-fold higher, 0.196 µM
- CCOc1ccc(N=Nc2ccc(O)c3ncccc23)cc1 — 9.2-fold higher, 0.5 µM
- O=C1Nc2cc(C(=O)NCCN3CCCCCC3)ccc2S/C1=C\c1ccccc1 — 150-fold higher, 8.37 µM
- C(=Cc1nc2ccccc2o1)c1ccc2c(c1)OCO2 — 350-fold higher, 19 µM
- C[C@@H]1CN([C@@H](C)CO)C(=O)c2cccc(NS(=O)(=O)c3ccc(F)cc3)c2O[C@@H]1CN(C)Cc1ccc(C(=O)Nc2ccccc2N)cc1 — 150-fold higher, 8.41 µM
- C[C@@H]1CN([C@@H](C)CO)C(=O)Cc2cc(N(C)C)ccc2O[C@@H]1CN(C)Cc1ccccc1 — 260-fold higher, 14.4 µM
- Cc1ccc2c(c1)C(=O)N1[C@H]3c4cc(Br)ccc4OC[C@@H]3[C@H](c3ccccc3)[C@]1(C)C(=O)N2 — 270-fold higher, 14.5 µM
- Oc1cccc(-c2nnc(-c3cccc(O)c3)nn2)c1 — 220-fold higher, 11.9 µM
- COC(=O)[C@H]1[C@H](CO)[C@H]2Cn3c(ccc(-c4ccccc4F)c3=O)[C@@H]1N2CC1CCCC1 — 320-fold higher, 17.4 µM
- COc1ccc(-c2nc3c(s2)CCc2onc(-c4ccc(OC)cc4)c2-3)cc1 — 150-fold higher, 8 µM
- NC1=CC(=O)C(=O)c2cccnc21 — 200-fold higher, 11.1 µM
- C[C@@H]1CN([C@@H](C)CO)C(=O)Cc2cc(NC(=O)Nc3ccc(C(F)(F)F)cc3)ccc2O[C@@H]1CN(C)Cc1ccc(C(=O)Nc2ccccc2N)cc1 — 200-fold higher, 10.9 µM
- Nc1cc2c(cc1Br)[nH]c(=O)c1ccccc12 — 300-fold higher, 16.6 µM
- O=c1c(Cl)cc(Cl)nn1-c1ccccc1 — 100-fold higher, 5.55 µM
- CC(=O)Nc1cccc(-c2ccnc3c2CC(C)(C(=O)NCc2ccc(N(C)C)cc2)O3)c1 (stereo unspecified) — 240-fold higher, 13.3 µM
- C=C1C(=O)O[C@@H]2[C@H]1[C@@H](OC(=O)/C(C)=C/C)C/C(C)=C\C(=O)/C=C(\C)[C@@H]2O — 59-fold higher, 3.23 µM
- O=C(Nc1ccc(Br)cc1)c1ccc(F)c(S(=O)(=O)N2CCN(c3ccccn3)CC2)c1 — 170-fold higher, 9.42 µM
- CN(CCO)c1ccc(/C=N/Nc2nncc3ccccc23)cc1 — 370-fold higher, 19.9 µM
- Cc1cccc(CN2C(=O)/C(=C\c3ccc(C(=O)NCCCN4CCN(C)CC4)cc3)Oc3ccccc32)c1 — 230-fold higher, 12.3 µM

For C[C@H](O)C#Cc1ccc2c(c1)O[C@@H](CN(C)Cc1ccc(-c3ccccc3)cc1)[C@H](C)CN([C@@H](C)CO)S2(=O)=O, the AC35 was 5.46 µM and 7.12 µM.
